# Measured values published in US20090143317A1, “Quercetin Glycoside Composition and Method of Preparing the Same” (Suntory Limited, priority 2004, published 2009).
# Key:
# [1] = Measurement of migration into the blood (orally administered in vivo absorbability); design: species or system SD male rats; conditions: rat, po, 150 umol/kg
# Procedure: Blood was collected from the tail vein 0 minutes (before the administration), 30 minutes, 1 hour, and 3 hours after the administration, and heparin was added thereto. Centrifugation was then performed, and, from the supernatant, heparin plasma samples were prepared. The concentrations of quercetin-glucuronide conjugate and quercetin in the prepared heparin plasma samples were measured by HPLC under the following conditions. AUC (Area under the curve) (0 to 3 hr) (μg/ml·hr) was then calculated based on the area under the curve of the plasma concentration of quercetin-glucuronide conjugate (μg/ml) and the area under the curve of the plasma concentration of quercetin (μg/ml). Quercetin-glucuronide conjugate and quercetin are both in vivo metabolites of isoquercitrin. […] Subsequently, in the same manner as in Experiment 1, plasma was prepared, and the plasma concentration of quercetin-glucuronide conjugate and that of quercetin were measured by HPLC. […] Subsequently, in the same manner as in Experiment 1, plasma was prepared, and the plasma concentration of quercetin-glucuronide conjugate and that of quercetin were measured by HPLC. AUC (Area under the curve) (0 to 3 hr) (μg/ml·hr) was then calculated based on the area under the curve of the plasma concentration of quercetin-glucuronide conjugate (μg/ml) and the area under the curve of the plasma concentration of quercetin (μg/ml). […]
# [2] = in vivo; cited from earlier work
"migration into the blood (orally administered in vivo absorbability), AUC (0 to 3 hr) of plasma quercetin-glucuronide conjugate plus quercetin [1]",SMILES,absorbability [2]
reduce absorbability,"O=c1c(O[C@@H]2O[C@H](CO)[C@@H](O)[C@H](O)[C@H]2O)c(-c2ccc(O)c(O)c2)oc2cc(O)cc(O)c12 [IQC, quercetin 3-O-μ-D-glucopyranoside]",higher absorbability than quercetin and rutin
higher absorbability in this order,O=c1c(OC2OC(CO)C(OC3OC(CO)C(O)C(O)C3O)C(O)C2O)c(-c2ccc(O)c(O)c2)oc2cc(O)cc(O)c12 (centres unmarked) [IQC-G1],
,"O=c1c(O[C@@H]2O[C@H](CO)[C@@H](O)[C@H](O)[C@H]2O)c(-c2ccc(O[C@@H]3O[C@H](CO)[C@@H](O)[C@H](O)[C@H]3O)c(O)c2)oc2cc(O)cc(O)c12 [Quercetin-3,4′-β-D-glucoside]",higher absorbability
,O=c1c(O)c(-c2ccc(O[C@@H]3O[C@H](CO)[C@@H](O)[C@H](O)[C@H]3O)c(O)c2)oc2cc(O)cc(O)c12 [Quercetin-4′-β-D-glucoside],higher absorbability
